Assays:
[1] = Pharmacokinetics in beagle dogs; assay type: in vivo; settings: dog, plasma
[2] = system: castrated (ORX) male Sprague-Dawley rats; assay: Anabolic and androgenic activity in castrated (ORX) male rats, daily oral gavage for fourteen days; assay type: in vivo, rat; settings: ORX rats
Protocol: Male Sprague-Dawley rats weighing approximately 200 g were purchased from Harlan Bioproducts for Science (Indianapolis, Ind.).
The test article for this study was weighed and dissolved in 10% DMSO (Fisher) diluted with PEG 300 (Acros Organics, N.J.) for preparation of the appropriate dosage concentrations. […] Animals were randomly assigned to one of seven groups consisting of 4 to 5 animals per group. Control groups (intact and ORX) were administered vehicle daily. […] Where appropriate, animals were castrated on day one of the study.
In addition, ventral prostate, seminal vesicles, and levator ani muscle were removed, individually weighed, normalized to body weight, and expressed as a percentage of intact control. Student's T-test was used to compare individual dose groups to the intact control group. Significance was defined a priori as a P-value<0.05. Ventral prostate and seminal vesicle weights were evaluated as a measure of androgenic activity, whereas levator ani muscle weight was evaluated as a measure of anabolic activity. Blood was collected from the abdominal aorta, centrifuged, and sera were frozen at −80° C. prior to determination of serum hormone levels. Serum luteinizing hormone (LH) and follicle stimulating hormone (FSH) concentrations were determined.
(§1) The test article for this study was weighed and dissolved in 10% DMSO (Fisher) diluted with PEG 300 (Acros Organics, N.J.) for preparation of the appropriate dosage concentrations. […] Animals were randomly assigned to one of seven groups consisting of 4 to 5 animals per group. Control groups (intact and ORX) were administered vehicle daily. Compound of formula S-XXIII was administered via oral gavage at doses of 0.01, 0.03, 0.1, 0.3, 0.75, and 1 mg/day to both intact and ORX groups. Where appropriate, animals were castrated on day one of the study. Treatment with compound of formula S-XXIII began nine days post ORX and was administered daily via oral gavage for fourteen days.
Male Sprague-Dawley rats weighing approximately 200 g were purchased from Harlan Bioproducts for Science (Indianapolis, Ind.). […] Regenerative effects of the compound of formula S-XXIV in chronically (9 days) ORX rats was similarly evaluated.
as §1, with “S-XXIV” for “S-XXIII”
Male Sprague-Dawley rats weighing approximately 200 g were purchased from Harlan Bioproducts for Science (Indianapolis, Ind.). […] Anabolic and androgenic activity of compound of formula S-XXV in intact animals was evaluated, and the dose response in acutely orchidectomized (ORX) animals was evaluated as well.
The compound was weighed and dissolved in 10% DMSO (Fisher) diluted with PEG 300 (Acros Organics, N.J.) for preparation of the appropriate dosage concentrations.

C[C@](O)(COc1ccc(Cl)c(F)c1)C(=O)Nc1ccc(C#N)c(C(F)(F)F)c1 [S-II, (S)-3-(4-chloro-3-fluorophenoxy)-N-(4-cyano-3-(trifluoromethyl)phenyl)-2-hydroxy-2-methylpropanamide]
clearance ([1]; oral): 0.36 ± 0.12 mL/min/kg | half-life ([1]; oral): 37 ± 26.8 h | Vd ([1]; oral, read-out: Vz): 1.27 ± 0.352 L/kg | bioavailability ([1]; po, peroral): 72.5% | Levator ani muscle weight ([2]; 0.01 mg/day oral): 50%±5% | Prostate weight ([2]; 0.01 mg/day oral): 12%±3% | Seminal vesicle weight ([2]; 0.01 mg/day oral): 11%±1% | Levator ani muscle weight ([2]; 0.03 mg/day oral): 62%±6% | Prostate weight ([2]; 0.03 mg/day oral): 26%±7% | Seminal vesicle weight ([2]; 0.03 mg/day oral): 11%±1% | Levator ani muscle weight ([2]; 0.1 mg/day oral): 89%±10% | Prostate weight ([2]; 0.1 mg/day oral): 39%±6% | Seminal vesicle weight ([2]; 0.1 mg/day oral): 27%±14% | Levator ani muscle weight ([2]; 0.3 mg/day oral): 118%±6% | Prostate weight ([2]; 0.3 mg/day oral): 60%±14% | Seminal vesicle weight ([2]; 0.3 mg/day oral): 58%±18% | Levator ani muscle weight ([2]; 0.75 mg/day oral): 134%±8% | Prostate weight ([2]; 0.75 mg/day oral): 88%±16% | Seminal vesicle weight ([2]; 0.75 mg/day oral): 86%±12% | Seminal vesicle weight ([2]; 1 mg/day oral): 100%±8%
